# Test results as given in patent publication US11384063B2, “Modulators of estrogen receptor proteolysis and associated methods of use” (Arvinas Operations, Inc., priority 2017, dated 2022).
# Molecular target: T1, ERα (Homo sapiens, UniProt P03372)
# T1 sequence (P03372 1-595): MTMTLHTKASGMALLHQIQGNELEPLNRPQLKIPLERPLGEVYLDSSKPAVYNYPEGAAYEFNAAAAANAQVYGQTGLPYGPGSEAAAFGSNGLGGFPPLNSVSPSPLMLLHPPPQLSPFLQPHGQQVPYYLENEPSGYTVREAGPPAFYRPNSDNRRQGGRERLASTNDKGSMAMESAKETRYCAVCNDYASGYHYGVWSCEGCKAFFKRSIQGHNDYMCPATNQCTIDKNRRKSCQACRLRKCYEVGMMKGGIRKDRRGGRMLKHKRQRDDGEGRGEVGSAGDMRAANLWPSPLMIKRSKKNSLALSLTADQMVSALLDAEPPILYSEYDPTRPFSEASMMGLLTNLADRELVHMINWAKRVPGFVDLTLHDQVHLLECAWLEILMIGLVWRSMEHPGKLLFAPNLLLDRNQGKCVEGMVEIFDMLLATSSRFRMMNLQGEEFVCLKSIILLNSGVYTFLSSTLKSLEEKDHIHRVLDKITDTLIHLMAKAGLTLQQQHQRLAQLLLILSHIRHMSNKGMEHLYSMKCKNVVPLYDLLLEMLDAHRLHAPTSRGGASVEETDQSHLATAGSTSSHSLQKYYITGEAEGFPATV
# Assay: ERE luciferase reporter gene assay in T47D-KBluc cells (target engagement)
# Type: cell-based
# Set-up: T47D human breast cancer cells stably transfected with estrogen responsive element/promoter/luciferase reporter gene; host or cells: T47D-KBluc cells
# Details: 10% FBS, 24 hours, Table 1 cereblon centric PROTACs, read-out: ER-α Luciferase IC50
# Method: Chimeric molecules were assessed for target engagement in T47D cells using the commercial kit of ERE luciferase reporter gene assay. In the assay, 10% FBS was included and estrogen level was measured to be 10 pM.
# ERE Luciferase Assay for Compounds in Table 1-3.
# T47D-KBluc cells (ATCC #CRL_2865, T47D human breast cancer cells stably transfected with estrogen responsive element/promoter/luciferase reporter gene) were seeded into 96-well white opaque plates in RPMI growth medium supplemented with 10% fetal bovine serum and allowed to adhere overnight in a 37° C. humidified incubator. The following day, cells were treated with PROTACs in a 12-point concentration curve (top final concentration of 300 nM with subsequent concentrations being 3-fold less with 2 pM being the lowest concentration in the assay). Each PROTAC was tested independently in two experiments on 96-well plates. After 24 hours, media was removed and lysis buffer was added to the wells. Following lysis, Bright-Glo™ Luciferase Assay Substrate (Prornega, Madison Wis.) was added and the luciferase activity was measured using a Cytation 3 plate reader (TioTek™, Winooski, Vt.). Each compound was assayed in duplicates and the activity was calculated as IC50 using GraphPad Prism software (San Diego, Calif.).
row,IC50 [nM],SMILES
1,17.4,O=C1CCC(N2Cc3c(OCCOCCOCCOCCOc4ccc(Oc5c(-c6ccc(Br)cc6)sc6cc(O)ccc56)cc4)cccc3C2=O)C(=O)N1 (stereo not shown) [Compound 21]
2,41.4,O=C1CCC(N2Cc3c(NCCOCCOCCOCCOc4ccc(Oc5c(-c6ccc(Br)cc6)sc6cc(O)ccc56)cc4)cccc3C2=O)C(=O)N1 (stereo not shown) [Compound 22]
3,22.4,O=C1CCC(N2C(=O)c3cccc(NCCOCCOCCOCCOc4ccc(Oc5c(-c6ccc(Br)cc6)sc6cc(O)ccc56)cc4)c3C2=O)C(=O)N1 (stereo not shown) [Compound 23]
4,16.8,O=C1CCC(N2Cc3c(NCCOCCOCCOc4ccc(Oc5c(-c6ccc(Br)cc6)sc6cc(O)ccc56)cc4)cccc3C2=O)C(=O)N1 (stereo not shown) [Compound 24]
5,8.6,O=C1CCC(N2Cc3c(OCCOCCOCCOCCOCCOc4ccc(Oc5c(-c6ccc(Br)cc6)sc6cc(O)ccc56)cc4)cccc3C2=O)C(=O)N1 (stereo not shown) [Compound 25]
6,9.7,O=C1CCC(N2C(=O)c3cccc(NCCOCCOCCOc4ccc(Oc5c(-c6ccc(Br)cc6)sc6cc(O)ccc56)cc4)c3C2=O)C(=O)N1 (stereo not shown) [Compound 26]
7,8.3,O=C1CCC(N2Cc3c(NCCOCCOc4ccc(Oc5c(-c6ccc(Br)cc6)sc6cc(O)ccc56)cc4)cccc3C2=O)C(=O)N1 (stereo not shown) [Compound 27]
8,2.7,O=C1CCC(N2Cc3c(OCCOc4ccc(Oc5c(-c6ccc(Br)cc6)sc6cc(O)ccc56)cc4)cccc3C2=O)C(=O)N1 (stereo not shown) [Compound 28]
9,19.2,O=C1CCC(N2C(=O)c3cccc(NCCOCCOc4ccc(Oc5c(-c6ccc(Br)cc6)sc6cc(O)ccc56)cc4)c3C2=O)C(=O)N1 (stereo not shown) [Compound 29]
10,1.3,O=C1CCC(N2Cc3cc(OCCN4CCN(CCOc5ccc(Oc6c(-c7ccc(Br)cc7)sc7cc(O)ccc67)cc5)CC4)ccc3C2=O)C(=O)N1 (stereo not shown) [Compound 30]
11,8.2,O=C1CCC(N2C(=O)c3cccc(NCCOc4ccc(Oc5c(-c6ccc(Br)cc6)sc6cc(O)ccc56)cc4)c3C2=O)C(=O)N1 (stereo not shown) [Compound 32]
12,1,O=C1CCC(N2Cc3cc(OCCCN4CCN(CCOc5ccc(Oc6c(-c7ccc(Br)cc7)sc7cc(O)ccc67)cc5)CC4)ccc3C2=O)C(=O)N1 (stereo not shown) [Compound 34]
13,9.9,O=C1CCC(N2Cc3cc(OCCCOCCCOc4ccc(Oc5c(-c6ccc(Br)cc6)sc6cc(O)ccc56)cc4)ccc3C2=O)C(=O)N1 (stereo not shown) [Compound 35]
14,4.7,O=C1CCC(N2Cc3cc(OCCCOCCCOCCCOc4ccc(Oc5c(-c6ccc(Br)cc6)sc6cc(O)ccc56)cc4)ccc3C2=O)C(=O)N1 (stereo not shown) [Compound 36]
15,4.2,O=C1CCC(N2Cc3c(OCCN4CC5(CN(CCOc6ccc(Oc7c(-c8ccc(Br)cc8)sc8cc(O)ccc78)cc6)C5)C4)cccc3C2=O)C(=O)N1 (stereo not shown) [Compound 37]
16,1.1,O=C1CC[C@@H](N2Cc3cc(OCCN4C[C@H]5C[C@@H]4CN5CCOc4ccc(Oc5c(-c6ccc(Br)cc6)sc6cc(O)ccc56)cc4)ccc3C2=O)C(=O)N1 [Compound 38]
17,3.1,O=C1CCC(N2Cc3cc(OCCOCCOCCOc4ccc(Oc5c(-c6ccc(Br)cc6)sc6cc(O)ccc56)cc4)ccc3C2=O)C(=O)N1 (stereo not shown) [Compound 39]
18,3.9,O=C1CCC(N2Cc3cc(OCCCOCCOc4ccc(Oc5c(-c6ccc(Br)cc6)sc6cc(O)ccc56)cc4)ccc3C2=O)C(=O)N1 (stereo not shown) [Compound 40]
19,2.4,O=C1CC[C@H](N2Cc3cc(OCCN4CC5(CN(CCOc6ccc(Oc7c(-c8ccc(Br)cc8)sc8cc(O)ccc78)cc6)C5)C4)ccc3C2=O)C(=O)N1 [Compound 41]
20,0.53,O=C1CC[C@H](N2Cc3cc(OCCN4C[C@@H]5C[C@H]4CN5CCOc4ccc(Oc5c(-c6ccc(Br)cc6)sc6cc(O)ccc56)cc4)ccc3C2=O)C(=O)N1 [Compound 42]
21,6.1,O=C1CCC(N2Cc3cc(OCCCOCCOCCOc4ccc(Oc5c(-c6ccc(Br)cc6)sc6cc(O)ccc56)cc4)ccc3C2=O)C(=O)N1 (stereo not shown) [Compound 43]
22,0.54,O=C1CC[C@H](N2Cc3cc(OCCOC4CCN(CCOc5ccc(Oc6c(-c7ccc(Br)cc7)sc7cc(O)ccc67)cc5)CC4)ccc3C2=O)C(=O)N1 [Compound 44]
23,6.5,O=C1CCC(N2Cc3cc(OCCCOCCCOCCOc4ccc(Oc5c(-c6ccc(Br)cc6)sc6cc(O)ccc56)cc4)ccc3C2=O)C(=O)N1 (stereo not shown) [Compound 45]

row,IC50 [nM],SMILES
1,1.9,O=C1CCC(N2Cc3cc(CCC(=O)N4CCN(CCOc5ccc(Oc6c(-c7ccc(Br)cc7)sc7cc(O)ccc67)cc5)CC4)ccc3C2=O)C(=O)N1 (stereo not shown) [Compound 46]
2,0.86,O=C1CCC(N2Cc3cc(CCCCC(=O)N4CCN(CCOc5ccc(Oc6c(-c7ccc(Br)cc7)sc7cc(O)ccc67)cc5)CC4)ccc3C2=O)C(=O)N1 (stereo not shown) [Compound 47]
3,8.3,O=C1CCC(N2Cc3cc(OCCCOCCCOCCCCOc4ccc(Oc5c(-c6ccc(Br)cc6)sc6cc(O)ccc56)cc4)ccc3C2=O)C(=O)N1 (stereo not shown) [Compound 48]
4,17.7,O=C1CCC(N2C(=O)c3ccc(N4CCN(CCCOc5ccc(Oc6c(-c7ccc(Br)cc7)sc7cc(O)ccc67)cc5)CC4)cc3C2=O)C(=O)N1 (stereo not shown) [Compound 49]
5,2.2,O=C1CCC(N2Cc3cc(OC4CC5(CCN(CCOc6ccc(Oc7c(-c8ccc(Br)cc8)sc8cc(O)ccc78)cc6)CC5)C4)ccc3C2=O)C(=O)N1 (stereo not shown) [Compound 50]
6,26.2,O=C1CCC(N2C(=O)c3ccc(N4CCN(CCCCCCOc5ccc(Oc6c(-c7ccc(Br)cc7)sc7cc(O)ccc67)cc5)CC4)cc3C2=O)C(=O)N1 (stereo not shown) [Compound 51]
7,0.6,CC(COc1ccc(Oc2c(-c3ccc(Br)cc3)sc3cc(O)ccc23)cc1)N1CCN(CCCCc2ccc3c(c2)CN(C2CCC(=O)NC2=O)C3=O)CC1 (stereo not shown) [Compound 53]
8,12.1,O=C1CCC(N2Cc3cc(N4CCN(CCCCCCOc5ccc(Oc6c(-c7ccc(Br)cc7)sc7cc(O)ccc67)cc5)CC4)ccc3C2=O)C(=O)N1 (stereo not shown) [Compound 54]
9,1.8,O=C1CCC(N2Cc3cc(N4CCN(CCOc5ccc(Oc6c(-c7ccc(Br)cc7)sc7cc(O)ccc67)cc5)CC4)ccc3C2=O)C(=O)N1 (stereo not shown) [Compound 55]
10,10.6,O=C1CCC(N2C(=O)c3ccc(N4CCN(CCOc5ccc(Oc6c(-c7ccc(Br)cc7)sc7cc(O)ccc67)cc5)CC4)cc3C2=O)C(=O)N1 (stereo not shown) [Compound 56]
11,6.6,O=C1CCC(N2Cc3cc(N4CCN(CCCCOc5ccc(Oc6c(-c7ccc(Br)cc7)sc7cc(O)ccc67)cc5)CC4)ccc3C2=O)C(=O)N1 (stereo not shown) [Compound 58]
12,3.6,O=C1CCC(N2Cc3cc(N4CCN(CCCOc5ccc(Oc6c(-c7ccc(Br)cc7)sc7cc(O)ccc67)cc5)CC4)ccc3C2=O)C(=O)N1 (stereo not shown) [Compound 59]
13,29.9,O=C1CCC(N2C(=O)c3ccc(N4CCN(CCCCOc5ccc(Oc6c(-c7ccc(Br)cc7)sc7cc(O)ccc67)cc5)CC4)cc3C2=O)C(=O)N1 (stereo not shown) [Compound 60]
14,8.5,O=C1CCC(N2C(=O)c3ccc(NCCC4CCN(CCOc5ccc(Oc6c(-c7ccc(Br)cc7)sc7cc(O)ccc67)cc5)CC4)cc3C2=O)C(=O)N1 (stereo not shown) [Compound 62]
15,0.82,O=C(CC1CCN(CCOc2ccc(Oc3c(-c4ccc(Br)cc4)sc4cc(O)ccc34)cc2)CC1)NCc1ccc2c(c1)CN(C1CCC(=O)NC1=O)C2=O (stereo not shown) [Compound 63]
16,2.9,O=C1CCC(N2Cc3cc(NCCCC4CCN(CCOc5ccc(Oc6c(-c7ccc(Br)cc7)sc7cc(O)ccc67)cc5)CC4)ccc3C2=O)C(=O)N1 (stereo not shown) [Compound 64]
17,5.8,O=C1CCC(N2C(=O)c3ccc(OCCOCCOc4ccc(Oc5c(-c6ccc(Br)cc6)sc6cc(O)ccc56)cc4)cc3C2=O)C(=O)N1 (stereo not shown) [Compound 66]
18,11.4,O=C1CCC(N2C(=O)c3ccc(NCCOCCOCCOc4ccc(Oc5c(-c6ccc(Br)cc6)sc6cc(O)ccc56)cc4)cc3C2=O)C(=O)N1 (stereo not shown) [Compound 67]
19,5.9,O=C1CCC(N2C(=O)c3ccc(NCCCC4CCN(CCOc5ccc(Oc6c(-c7ccc(Br)cc7)sc7cc(O)ccc67)cc5)CC4)cc3C2=O)C(=O)N1 (stereo not shown) [Compound 68]
20,103,O=C1CCC(N2C(=O)c3ccc(N4CCN(CCCCCCCOc5ccc(Oc6c(-c7ccc(Br)cc7)sc7cc(O)ccc67)cc5)CC4)cc3C2=O)C(=O)N1 (stereo not shown) [Compound 69]
21,1.6,O=C1CCC(N2C(=O)c3ccc(CCCOC4CCN(CCOc5ccc(Oc6c(-c7ccc(Br)cc7)sc7cc(O)ccc67)cc5)CC4)cc3C2=O)C(=O)N1 (stereo not shown) [Compound 70]
22,0.94,O=C1CCC(N2Cc3cc(NCCCN4CCN(CCOc5ccc(Oc6c(-c7ccc(Br)cc7)sc7cc(O)ccc67)cc5)CC4)ccc3C2=O)C(=O)N1 (stereo not shown) [Compound 71]
23,3.1,O=C1CCC(N2Cc3cc(NCCOCCOc4ccc(Oc5c(-c6ccc(Br)cc6)sc6cc(O)ccc56)cc4)ccc3C2=O)C(=O)N1 (stereo not shown) [Compound 72]
